For assay [1], the target named is human full-length recombinant HDAC6 (Homo sapiens (Human), UniProt Q9UBN7). The experiment in a line: HDAC6 enzymatic activity assay (alternative protocol, Ac-Gly-Ala-Lys(Ac)-AMC). The settings on record: 5 nM enzyme, read-out: HDAC6 biochem. In kind it is biochemical. As to the method:
(§1) Inhibition of HDAC enzymes was performed in 384-well plate format using human full-length recombinant HDAC1 and HDAC6, isolated from a baculovirus expression system in Sf9 cells (BPS Bioscience). Reaction buffer for HDAC1 contained 50 mM Tris HCl pH 8.0, 137 mM NaCl, 2.7 mM KCl, 1 mM MgCl2, 0.1 mg/mL BSA, and reaction buffer for HDAC6 contained 50 mM Tris/HCl, pH 8.0, 137 mM NaCl, 2.7 mM KCl, 250 μM EDTA, 1 mM DTT, 0.1 mg/mL BSA. Compounds (dissolved in 100% DMSO) or DMSO (vehicle) were diluted in assay buffer at 3× final assay concentration and then added to assay plates. SAHA ([…]) was used as a positive control. 3× final assay concentration of recombinant enzymes (final assay concentration is 4 nM and 5 nM for HDAC1 and HDAC6, respectively) were preincubated for 10 minutes with test compounds at room temperature. Afterwards, 3× final assay concentration of an acetylated fluorogenic peptide (Ac-Gly-Ala-Lys(Ac))-AMC, Bachem; final assay concentration is 12 µM and 40 µM for HDAC1 and HDAC6, respectively) was added to assay plate, allowing deacetylase reactions to incubate for 60 minutes at room temperature. The developer reagent containing 5 μM SAHA and 50 μM trypsin was added to stop the deacetylase reaction and generate AMNC-fluorescence. 15 minutes after addition of developer reagent, endpoint measurements were taken using CLARIOstar (BMG Labtech) plate reader (excitation/emission: 360/450). Fluorescence signals were normalized for each plate using GraphPad Prism software: reaction HDAC-substrate in presence of DMSO was set to 100% while reaction HDAC-substrate in presence of 10 μM SAHA was set to 0%.

Assay [2] addresses human full-length recombinant HDAC1 (Homo sapiens (Human), UniProt Q13547). As to the kind of experiment: HDAC1 enzymatic activity assay (alternative protocol, Ac-Gly-Ala-Lys(Ac)-AMC). The assay is classed as biochemical. The settings on record: 4 nM enzyme, read-out: HDAC1 biochem. On the procedure:
as §1

Assay [3] concerns the target catalytic domain 2 (CD2) of HDAC6 (Homo sapiens (Human), UniProt Q9UBN7). The experiment in a line: Cellular target engagement assay - NanoBRET. The assay is classed as cell-based. The settings on record: NanoLuc-HDAC6(CD2) in HEK293T cells, 2 hours, read-out: IC50 (HDAC6(CD2) interaction). (In general: In BRET a luciferase serves as donor, and the signal depends on an acceptor being close.)

Each structure is given as a SMILES string.

human full-length recombinant HDAC6, sequence (Q9UBN7 whole entry): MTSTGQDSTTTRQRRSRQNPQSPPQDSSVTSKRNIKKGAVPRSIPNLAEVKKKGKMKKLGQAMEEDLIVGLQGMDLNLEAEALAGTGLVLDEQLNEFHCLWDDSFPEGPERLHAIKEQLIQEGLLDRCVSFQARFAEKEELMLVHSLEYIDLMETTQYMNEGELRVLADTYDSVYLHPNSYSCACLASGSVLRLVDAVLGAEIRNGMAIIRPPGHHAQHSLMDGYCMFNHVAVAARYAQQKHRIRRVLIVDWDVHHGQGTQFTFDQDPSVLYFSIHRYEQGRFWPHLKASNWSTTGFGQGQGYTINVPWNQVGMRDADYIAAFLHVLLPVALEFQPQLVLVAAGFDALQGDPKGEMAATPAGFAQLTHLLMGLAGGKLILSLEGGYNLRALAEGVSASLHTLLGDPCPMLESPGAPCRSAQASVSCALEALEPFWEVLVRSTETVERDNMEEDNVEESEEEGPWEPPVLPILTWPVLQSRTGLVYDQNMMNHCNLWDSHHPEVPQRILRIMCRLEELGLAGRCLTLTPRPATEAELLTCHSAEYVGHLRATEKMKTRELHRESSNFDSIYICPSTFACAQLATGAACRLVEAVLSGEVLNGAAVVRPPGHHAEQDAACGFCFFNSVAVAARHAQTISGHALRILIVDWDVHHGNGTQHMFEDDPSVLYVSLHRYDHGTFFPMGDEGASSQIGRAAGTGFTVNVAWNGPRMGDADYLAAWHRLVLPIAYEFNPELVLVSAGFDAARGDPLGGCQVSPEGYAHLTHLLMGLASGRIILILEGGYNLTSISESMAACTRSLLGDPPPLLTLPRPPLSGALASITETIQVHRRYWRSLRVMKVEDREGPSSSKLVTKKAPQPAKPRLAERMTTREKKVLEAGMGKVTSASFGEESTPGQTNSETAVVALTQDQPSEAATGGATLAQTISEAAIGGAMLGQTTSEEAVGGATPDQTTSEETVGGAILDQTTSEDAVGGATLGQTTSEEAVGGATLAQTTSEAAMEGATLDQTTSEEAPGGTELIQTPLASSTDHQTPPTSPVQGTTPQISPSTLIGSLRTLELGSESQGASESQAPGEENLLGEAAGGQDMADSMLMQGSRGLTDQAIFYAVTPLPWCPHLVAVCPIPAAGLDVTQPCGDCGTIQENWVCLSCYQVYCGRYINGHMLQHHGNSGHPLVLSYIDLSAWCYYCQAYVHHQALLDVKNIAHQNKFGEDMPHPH
human full-length recombinant HDAC1, sequence (Q13547 whole entry): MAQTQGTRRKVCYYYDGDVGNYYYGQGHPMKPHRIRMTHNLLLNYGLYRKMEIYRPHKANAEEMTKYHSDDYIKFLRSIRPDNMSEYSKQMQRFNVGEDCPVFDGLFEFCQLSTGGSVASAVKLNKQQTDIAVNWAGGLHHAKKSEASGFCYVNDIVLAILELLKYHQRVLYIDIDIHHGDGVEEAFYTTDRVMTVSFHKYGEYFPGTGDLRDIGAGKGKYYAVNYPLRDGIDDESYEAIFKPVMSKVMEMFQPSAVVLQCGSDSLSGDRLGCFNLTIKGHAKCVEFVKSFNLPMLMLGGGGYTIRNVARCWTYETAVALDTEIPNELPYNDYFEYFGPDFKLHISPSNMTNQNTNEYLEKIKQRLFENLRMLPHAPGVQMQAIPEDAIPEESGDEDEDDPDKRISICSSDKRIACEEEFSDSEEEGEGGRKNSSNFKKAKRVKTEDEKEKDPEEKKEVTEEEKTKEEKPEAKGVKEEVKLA
catalytic domain 2 (CD2) of HDAC6, sequence (Q9UBN7 482-800): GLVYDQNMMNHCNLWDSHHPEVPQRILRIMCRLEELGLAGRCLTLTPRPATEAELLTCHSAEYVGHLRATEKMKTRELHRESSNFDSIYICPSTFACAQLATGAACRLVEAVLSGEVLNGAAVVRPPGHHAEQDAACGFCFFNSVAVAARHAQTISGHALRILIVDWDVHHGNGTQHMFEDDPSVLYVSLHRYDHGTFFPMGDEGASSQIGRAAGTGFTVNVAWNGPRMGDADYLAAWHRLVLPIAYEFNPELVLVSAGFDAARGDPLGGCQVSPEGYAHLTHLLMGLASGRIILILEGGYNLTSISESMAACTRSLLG

`Cn1ncc2c(SCC(=O)c3ccc(CNS(C)(=O)=O)s3)ncnc21` [Compound 87]: the IC50 is no more than 100 nM in assay [1], greater than 10000 nM in assay [2] and 100 to 500 nM in assay [3].

Regarding `Cn1ncc2c(SCC(=O)c3ccc(CNC(=O)c4ccccc4)s3)ncnc21` [Example 30, N-((5-(2-((1-methyl-1H-pyrazolo[3,4-d]pyrimidin-4-yl)thio)acetyl)thiophen-2-yl)methyl)benzamide], the IC50 in assay [1] is no more than 100 nM; in assay [2] it was greater than 10000 nM; in assay [3], no more than 100 nM.

With `CN(Cc1ccc(C(=O)CSc2ncnc3c2cnn3C)s1)S(=O)(=O)C1CC1` [Compound 91, N-methyl-N-((5-(2-((1-methyl-1H-pyrazolo[3,4-d]pyrimidin-4-yl)thio)acetyl)thiophen-2-yl)methyl)cyclopropanesulfonamide], the IC50 in assay [1] was no more than 100 nM; in assay [2], greater than 10000 nM; in assay [3], 100 to 500 nM.

`O=C(CSc1nc(C(F)(F)F)nc2ccccc12)c1ccc(CCN2CCCC2=O)s1` [Example 26, 1-(2-(5-(2-((2-(trifluoromethyl)quinazolin-4-yl)thio)acetyl)thiophen-2-yl)ethyl)pyrrolidin-2-one]: the values for the IC50 in assay [1], in assay [2] and in assay [3] were no more than 100 nM, greater than 10000 nM and 100 to 500 nM, respectively.

Consider `CC(C)(C)C(=O)NCc1ccc(C(=O)CSc2nc(C(F)F)nc3ccccc23)s1` [Example 19, N-((5-(2-((2-(difluoromethyl)quinazolin-4-yl)thio)acetyl)thiophen-2-yl)methyl)pivalamide], for which the IC50 in assay [1] was no more than 100 nM; in assay [2], greater than 10000 nM; in assay [3] it was 100 to 500 nM.

Take `Cn1ncc2c(SCC(=O)c3ccc(CNC(=O)Cc4ccncc4)s3)ncnc21` [Compound 57, N-((5-(2-((1-methyl-1H-pyrazolo[3,4-d]pyrimidin-4-yl)thio)acetyl)thiophen-2-yl)methyl)-2-(160yrrolid-4-yl)acetamide]: the IC50 in assay [1] is no more than 100 nM; in assay [2], greater than 10000 nM; in assay [3], 100 to 500 nM.

For `Cc1nc(SCC(=O)c2ccc(CNC(=O)C(C)(C)C)s2)c2cccnc2n1` [Example 7, N-((5-(2-((2-methylpyrido[2,3-d]pyrimidin-4-yl)thio)acetyl)thiophen-2-yl)methyl)pivalamide], the IC50 is no more than 100 nM in assay [1], 1000 to 10000 nM in assay [2] and no more than 100 nM in assay [3].

In the case of `Cc1nc(SCC(=O)c2ccc(CNS(=O)(=O)CC3CC3)s2)c2ccccc2n1` [Compound 93, 1-cyclopropyl-N-((5-(2-((2-methylquinazolin-4-yl)thio)acetyl)thiophen-2-yl)methyl)methanesulfonamide], the results for the IC50 in assay [1], in assay [2] and in assay [3] were no more than 100 nM, greater than 10000 nM and 100 to 500 nM, respectively.

In the case of `Cn1ncc2c(SCC(=O)c3ccc(CNC(=O)CO)s3)ncnc21` [Compound 59, 2-hydroxy-N-((5-(2-((1-methyl-1H-pyrazolo[3,4-d]pyrimidin-4-yl)thio)acetyl)thiophen-2-yl)methyl)acetamide], the IC50 in assay [1] was no more than 100 nM; in assay [2], greater than 10000 nM; in assay [3], 100 to 500 nM.

Regarding `CS(=O)(=O)NCCc1ccc(C(=O)CSc2nc(C(F)(F)F)nc3ccccc23)s1` [Compound 98, N-(2-(5-(2-((2-(trifluoromethyl)quinazolin-4-yl)thio)acetyl)thiophen-2-yl)ethyl)methanesulfonamide], the IC50 in assay [1] was no more than 100 nM; in assay [2], greater than 10000 nM; in assay [3] it was no more than 100 nM.

For `CC(C)(C)C(=O)NCc1ccc(C(=O)CSc2nncc3ccccc23)s1` [Example 193, N-((5-(2-(phthalazin-1-ylthio)acetyl)thiophen-2-yl)methyl)pivalamide], the IC50 in assay [1] is no more than 100 nM; in assay [2], greater than 10000 nM; in assay [3], 100 to 500 nM.

For `CN(Cc1ccc(C(=O)CSc2ncnc3c2cnn3C)s1)C(=O)C(C)(C)C` [Example 33, N-methyl-N-((5-(2-((1-methyl-1H-pyrazolo[3,4-d]pyrimidin-4-yl)thio)acetyl)thiophen-2-yl)methyl)pivalamide], the IC50 in assay [1] was no more than 100 nM; in assay [2], greater than 10000 nM; in assay [3], 100 to 500 nM.

As to `CN(Cc1ccc(C(=O)CSc2ncnc3c2cnn3C)s1)C(=O)C1CC1` [Example 34, N-methyl-N-((5-(2-((1-methyl-1H-pyrazolo[3,4-d]pyrimidin-4-yl)thio)acetyl)thiophen-2-yl)methyl)cyclopropanecarboxamide], the IC50 is no more than 100 nM in assay [1], greater than 10000 nM in assay [2] and 100 to 500 nM in assay [3].

Consider `COCC(=O)NCc1ccc(C(=O)CSc2ncnc3c2cnn3C)s1` [Compound 58, 2-methoxy-N-((5-(2-((1-methyl-1H-pyrazolo[3,4-d]pyrimidin-4-yl)thio)acetyl)thiophen-2-yl)methyl)acetamide], for which the IC50 was no more than 100 nM in assay [1], greater than 10000 nM in assay [2] and 1000 to 10000 nM in assay [3].

With `Cn1ncc2c(SCC(=O)c3ccc(CNC(=O)C(C)(C)C)s3)nc(C3CC3)nc21` [Example 6, N-((5-(2-((6-cyclopropyl-1-methyl-1H-pyrazolo[3,4-d]pyrimidin-4-yl)thio)acetyl)thiophen-2-yl)methyl)pivalamide], the IC50 in assay [1] is no more than 100 nM; in assay [2], greater than 10000 nM; in assay [3], 100 to 500 nM.

With `Cc1nc(SCC(=O)c2ccc(CNC(=O)C(C)(C)C)s2)c2cc(F)ccc2n1` [Example 9, N-((5-(2-((6-fluoro-2-methylquinazolin-4-yl)thio)acetyl)thiophen-2-yl)methyl)pivalamide], the IC50 in assay [1] was no more than 100 nM; in assay [2], greater than 10000 nM; in assay [3], 100 to 500 nM.

Take `COc1ccc2c(SCC(=O)c3ccc(CNC(=O)C(C)(C)C)s3)nc(C)nc2c1` [Example 12, N-((5-(2-((7-methoxy-2-methylquinazolin-4-yl)thio)acetyl)thiophen-2-yl)methyl)pivalamide]: the IC50 in assay [1] was no more than 100 nM; in assay [2], greater than 10000 nM; in assay [3], 100 to 500 nM.

On to `Cc1ccc2oc(SCC(=O)c3ccc(CNC(=O)C(C)(C)C)s3)nc2n1` [Example 23, N-((5-(2-((5-methyloxazolo[4,5-b]pyridine-2-yl)thio)acetyl)thiophen-2-yl)methyl)pivalamide], for which the IC50 was no more than 100 nM in assay [1], 1000 to 10000 nM in assay [2] and 100 to 500 nM in assay [3].

In the case of `O=C(NCCc1ccc(C(=O)CSc2nc(C(F)(F)F)nc3ccccc23)s1)c1ccccc1` [Example 37, N-(2-(5-(2-((2-(trifluoromethyl)quinazolin-4-yl)thio)acetyl)thiophen-2-yl)ethyl)benzamide], the IC50 is no more than 100 nM in assay [1], greater than 10000 nM in assay [2] and 1000 to 10000 nM in assay [3].

`Cn1ncc2c(SCC(=O)c3ccc(CN4CCCC4=O)s3)ncnc21` [Example 25, 1-((5-(2-((1-methyl-1H-pyrazolo[3,4-d]pyrimidin-4-yl)thio)acetyl)thiophen-2-yl)methyl)pyrrolidin-2-one]: the IC50 was no more than 100 nM in assay [1], greater than 10000 nM in assay [2] and 100 to 500 nM in assay [3].

As to `Cc1nc(SCC(=O)c2ccc(CCNS(C)(=O)=O)s2)c2ccccc2n1` [Compound 94, N-(2-(5-(2-((2-methylquinazolin-4-yl)thio)acetyl)thiophen-2-yl)ethyl)methanesulfonamide], the IC50 in assay [1] was no more than 100 nM; in assay [2], greater than 10000 nM; in assay [3], 100 to 500 nM.

For `O=C(CSc1nc(C(F)(F)F)nc2ccccc12)c1ccc(CCNC(=O)C2CC2)s1` [Example 36, N-(2-(5-(2-((2-(trifluoromethyl)quinazolin-4-yl)thio)acetyl)thiophen-2-yl)ethyl)cyclopropanecarboxamide], the IC50 in assay [1] is no more than 100 nM; in assay [2], greater than 10000 nM; in assay [3], no more than 100 nM.

For the molecule `Cc1nc(SCC(=O)c2ccc(CNC(=O)C(C)(C)C)s2)c2ccccc2n1` [Example 3, N-((5-(2-((2-methylquinazolin-4-yl)thio)acetyl)thiophen-2-yl)methyl)pivalamide], the IC50 was no more than 100 nM in assay [1], 1000 to 10000 nM in assay [2] and no more than 100 nM in assay [3].

Consider `Cc1nc(SCC(=O)c2ccc(CNC(=O)C(C)(C)C)s2)c2ccc(F)cc2n1` [Example 10, N-((5-(2-((7-fluoro-2-methylquinazolin-4-yl)thio)acetyl)thiophen-2-yl)methyl)pivalamide], for which the IC50 in assay [1] was no more than 100 nM; in assay [2] it was greater than 10000 nM; in assay [3], 100 to 500 nM.

On to `CC(C)c1nc(SCC(=O)c2ccc(CNC(=O)C(C)(C)C)s2)c2ccccc2n1` [Example 1, N-((5-(2-((2-isopropylquinazolin-4-yl)thio)acetyl)thiophen-2-yl)methyl)pivalamide], for which the IC50 in assay [1] is no more than 100 nM; in assay [2] it was greater than 10000 nM; in assay [3], 100 to 500 nM.
